Assay [1] deals with T1, intracellular arginase in macrophages isolated from murine bone marrow (BMDM) (Mus musculus, UniProt Q61176).
T1 construct: endogenous in cells; host or cells: primary bone marrow derived macrophages from Balb/c mice, M-CSF and IL-4 treated
T1 sequence (Q61176 1-323): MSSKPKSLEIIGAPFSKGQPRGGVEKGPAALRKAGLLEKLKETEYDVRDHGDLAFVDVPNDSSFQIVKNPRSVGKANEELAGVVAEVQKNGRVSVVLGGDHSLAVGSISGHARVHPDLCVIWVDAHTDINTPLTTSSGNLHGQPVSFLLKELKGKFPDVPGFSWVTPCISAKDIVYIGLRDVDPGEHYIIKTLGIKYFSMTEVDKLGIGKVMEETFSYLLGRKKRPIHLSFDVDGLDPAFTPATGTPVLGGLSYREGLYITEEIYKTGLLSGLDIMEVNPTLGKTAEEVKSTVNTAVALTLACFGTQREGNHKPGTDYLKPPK
The assay is described as follows: Cell-based assay: intracellular arginase in bone marrow derived macrophages (BMDM), urea level. Also on record: species or system Balb/c mice. The following applies: murine BMDM with M-CSF and IL-4, urea measured 24 hours after compound; * = most potent diastereoisomer or mixture of diastereoisomers; read-out: Activity Class (BMDM). The procedure: Efficacy of Selected Examples Towards Intracellular Arginase in Macrophages Isolated from Murine Bone Marrow—Bone Marrow Derived Macrophages (BMDM)
Materials & Methods: The assay was performed according to modified literature protocol modification (Pineda-Torra I et al., Methods Mol Biol. 2015; 1339:101-9. Mia S et al. Scand J Immunol. 2014 May; 79(5):305-14). The femurs and tibias were isolated from Balb/c mice. Bones were cleaned from all attached tissues by using sterile swab without affecting the bone structure. Bones were sterilized by immersion in 70% ethanol for 5 min and then rinsed in PBS. The sides of the bones were cut off and flush with cold sterile PBS by using 26-G needle S into a 50 mL sterile tube with a cell strainer (Falcon™, Cat. No. U00149), until bone cavity appeared white. Then the cells were centrifuged (5 min at 500×G, 4° C.), washed twice with PBS and counted. Cells were plated in Petri dish in density of 1×10^6/mL and cultured in DMEM (Gibco, Cat. No. 31331-029) with 10% FBS, 1% pen-strep and 50 ng/mL M-CSF (PeproTech, Cat. No. 315-02), (37° C., 5% CO2). After five days cells were subcultured into P96 plate (BD, Cat. No. 353072) in density of 64 000 cells/well in medium supplemented with 50 ng/mL M-CSF and 20 ng/mL IL-4 (Biomibo Cat. No. 214-1). One day later exemplary compounds (dissolved in PBS) were added in several different concentrations and 24 hours later the level of urea was measured in each well (Jung D et al., Clin Chem. 1975, 21(8):1136-40). The concentration of urea in the absence of any compound was considered as the maximum. The absorbance of cell culture media (background) was subtracted from all the values.
For selected examples the activity class for ARG2 was estimated based on % of inhibition for 1 μM and 100 μM concentration of tested compounds.

The target in assay [2] is T2, recombinant human arginase 2 (Homo sapiens, UniProt P78540).
T2 construct: made in house; host or cells: CHO
T2 sequence (P78540 23-354): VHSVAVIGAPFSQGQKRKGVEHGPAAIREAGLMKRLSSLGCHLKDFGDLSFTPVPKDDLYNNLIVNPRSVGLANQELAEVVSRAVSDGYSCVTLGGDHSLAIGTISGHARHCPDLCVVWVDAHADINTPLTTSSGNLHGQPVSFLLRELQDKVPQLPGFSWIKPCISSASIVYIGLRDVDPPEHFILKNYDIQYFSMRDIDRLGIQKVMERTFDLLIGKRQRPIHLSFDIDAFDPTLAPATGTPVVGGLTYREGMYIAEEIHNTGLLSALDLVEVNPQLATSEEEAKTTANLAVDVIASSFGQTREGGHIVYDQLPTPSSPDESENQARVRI
The assay is described as follows: Human arginase activity assay (urea measurement), arginase 2. The conditions noted are these: for selected examples class estimated from % of inhibition at 1 μM and 100 μM, * = most potent diastereoisomer or mixture of diastereoisomers, read-out: Activity Class (ARG II). Format: biochemical. The essentials: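 Recombinant CHO-expressed human arginase 2 converted 20 mM L-arginine with 150 μM MnCl2 in phosphate buffer pH 7.4 for 60 min at 37 °C. Urea was measured colorimetrically at 530 nm after background subtraction, and IC50 fitted. Some compounds were classed by % inhibition at 1 μM and 100 μM.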

The target of assay [3] is T3, recombinant human arginase 1 (Homo sapiens, UniProt P05089).
T3 construct: purchased Biolegend 552502
T3 sequence (P05089 1-322): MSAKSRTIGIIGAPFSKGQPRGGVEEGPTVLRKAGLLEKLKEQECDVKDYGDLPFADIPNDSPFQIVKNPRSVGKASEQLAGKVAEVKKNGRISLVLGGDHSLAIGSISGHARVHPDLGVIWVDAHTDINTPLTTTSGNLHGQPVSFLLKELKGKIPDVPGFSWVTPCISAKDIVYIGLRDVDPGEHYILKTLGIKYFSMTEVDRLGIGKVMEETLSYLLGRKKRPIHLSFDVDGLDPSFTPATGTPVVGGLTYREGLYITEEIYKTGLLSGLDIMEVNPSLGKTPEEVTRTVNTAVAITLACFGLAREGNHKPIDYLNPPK
The assay is described as follows: Human arginase activity assay (urea measurement), arginase 1. Format: biochemical. The following applies: recombinant human arginase 1, pH 7.4, 37° C., 60 min; * = value for the most potent diastereoisomer or the mixture of diastereoisomers; read-out: Activity Class (ARG I). The essentials:
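Arginase activity was measured as urea formed from L-arginine over 60 min at 37 °C. Reaction stopped with oPA/NED acidic reagent and absorbance read at 530 nm after 20 min colour development. Values were background-subtracted and normalised to no-compound activity, and IC50 was derived from percent-inhibition concentration-response regression.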

pIC50: −log10 of the molar value. Where a name gives a salt, the structure may show the parent alone.

Consider `N[C@]1(C(=O)O)C[C@H](CCB(O)O)CC[C@H]1CN1CCCCC1` [Example 70, (1R,2S,5R)-1-amino-5-(2-boronoethyl)-2-(piperidin-1-ylmethyl)cyclohexane-1-carboxylic acid], for which the results for the pIC50 in assay [1], in assay [2] and in assay [3] were 7.00 to 9.00, 6.00 to 7.00 and 7.00 to 9.00, respectively.

With `CCN(C)C[C@@H]1CC[C@@H](CCB(O)O)C[C@]1(N)C(=O)O` [Example 69, (1R,2S,5R)-1-amino-5-(2-boronoethyl)-2-((ethyl(methyl)amino)methyl)cyclohexane-1-carboxylic acid], the pIC50 in assay [1] is 6.00 to 7.00; in assay [2], 7.00 to 9.00; in assay [3] it was 7.00 to 9.00.

Consider `N[C@]1(C(=O)O)C[C@H](CCB(O)O)CC[C@H]1CN1CCc2ccccc2C1` (racemic) [Example 35, rac-(1R,2S,5R)-1-amino-5-(2-boronoethyl)-2-((3,4-dihydroisoquinolin-2(1H)-yl)methyl)cyclohexanecarboxylic acid dihydrochloride], for which the pIC50 in assay [1] is 4.00 to 5.00; in assay [2] it was 5.00 to 6.00; in assay [3] it was 6.00 to 7.00.

As for `NC[C@@H]1C[C@@H](CCB(O)O)CC(N)(C(=O)O)C1` (mixture of isomers) [Example 54, rac-(3R,5R)-1-amino-3-(aminomethyl)-5-(2-boronoethyl)cyclohexanecarboxylic acid dihydrochloride], the results for the pIC50 in assay [1], in assay [2] and in assay [3] were 4.00 to 5.00, 5.00 to 6.00 and 6.00 to 7.00, respectively.

Take `N[C@@H](CCCCB(O)O)C(=O)O` [Comparative example 1, reference compound]: the pIC50 was 5.00 to 6.00 in assay [1], 5.00 to 6.00 in assay [2] and 6.00 to 7.00 in assay [3].

For `CC1(C)[C@H]2C[C@@H]3OB(CC[C@@H]4CC[C@@H](CN5CCCC5)[C@@](N)(C(=O)O)C4)O[C@]3(C)[C@@H]1C2` [Example 45, (1R,2S,5R)-1-amino-2-(pyrrolidin-1-ylmethyl)-5-(2-((3aR,4R,6R,7aS)-3a,5,5-trimethylhexahydro-4,6-methanobenzo[d][1,3,2]dioxaborol-2-yl)ethyl)cyclohexanecarboxylic acid dihydrochloride], the pIC50 in assay [1] was 7.00 to 9.00; in assay [2], 6.00 to 7.00; in assay [3], 7.00 to 9.00.

As for `NC1CC(CCB(O)O)CC(N)(C(=O)O)C1` (stereo not drawn) [Example 56, 1,3-diamino-5-(2-boronoethyl)cyclohexanecarboxylic acid dihydrochloride], the results for the pIC50 in assay [1], in assay [2] and in assay [3] were under 4.00, 6.00 to 7.00 and 5.00 to 6.00, respectively.

For the molecule `CNC1(C(=O)O)C[C@H](CCB(O)O)CCC1CN` (single isomer, unassigned) [Example 68, dihydrochloride], the pIC50 in assay [1], in assay [2] and in assay [3] was 4.00 to 5.00 each time.

`CC1(C)CCN(C[C@@H]2CC[C@@H](CCB(O)O)C[C@]2(N)C(=O)O)CC1` (racemic) [Example 26, rac-(1R,2S,5R)-1-amino-5-(2-boronoethyl)-2-((4,4-dimethylpiperidin-1-yl)methyl)cyclohexanecarboxylic acid dihydrochloride]: the figures for the pIC50 in assay [1], in assay [2] and in assay [3] were 5.00 to 6.00, 6.00 to 7.00 and 6.00 to 7.00, respectively.

`CN(C)C1CC(CCB(O)O)CC(N)(C(=O)O)C1` (stereo not drawn) [Example 65, 1-amino-3-(2-boronoethyl)-5-(dimethylamino)cyclohexane-1-carboxylic acid dihydrochloride]: the pIC50 in assay [1] was under 4.00; in assay [2] it was 4.00 to 5.00; in assay [3], 4.00 to 5.00.

Turning to `NC1CCC(CCB(O)O)CC1(N)C(=O)O` (single isomer, unassigned) [Example 48, 1,2-diamino-5-(2-boronoethyl)cyclohexanecarboxylic acid dihydrochloride], the pIC50 in assay [1] is 4.00 to 5.00; in assay [2], 6.00 to 7.00; in assay [3], 6.00 to 7.00.

Take `NCC1CCC(CCB(O)O)CC1(N)C(=O)O` (stereo not drawn) [Example 24, 1-Amino-2-(aminomethyl)-5-(2-boronoethyl)cyclohexane-1-carboxylic acid]: the pIC50 in assay [1] is 4.00 to 5.00; in assay [2], 6.00 to 7.00; in assay [3], 7.00 to 9.00.

As to `NC(CCCCB(O)O)(CCNCCCc1ccc(Cl)cc1Cl)C(=O)O` (stereo not drawn) [Comparative example 2, reference compound], the pIC50 in assay [1] is 5.00 to 6.00; in assay [2], 6.00 to 7.00; in assay [3], 7.00 to 9.00.

Regarding `CN(C)C[C@@H]1CC[C@@H](CCB(O)O)C[C@]1(N)C(=O)O` [Example 38, (1R,2S,5R)-1-amino-5-(2-boronoethyl)-2-((dimethylamino)methyl)cyclohexanecarboxylic acid], the pIC50 in assay [1], in assay [2] and in assay [3] was 7.00 to 9.00 in each case.

For `N[C@]1(C(=O)O)C[C@H](CCB(O)O)CC[C@H]1CN1CCCC1` [Example 71, (1R,2S,5R)-1-amino-5-(2-boronoethyl)-2-(pyrrolidin-1-ylmethyl)cyclohexane-1-carboxylic acid], the pIC50 in assay [1], in assay [2] and in assay [3] was 7.00 to 9.00 in each case.

Regarding `NC1(C(=O)O)CC(CCB(O)O)CC=C1Cc1ccc(Cl)cc1` (stereo not drawn) [Example 53, 1-amino-5-(2-boronoethyl)-2-(4-chlorobenzyl)cyclohex-2-enecarboxylic acid hydrochloride], the pIC50 is 5.00 to 6.00 in assay [1], 5.00 to 6.00 in assay [2] and 6.00 to 7.00 in assay [3].

On to `N[C@@]1(C(=O)O)COC[C@@H](CCB(O)O)C1` (racemic) [Example 61, rac-(3R,5S)-3-amino-5-(2-boronoethyl)tetrahydro-2H-pyran-3-carboxylic acid hydrochloride], for which the pIC50 in assay [1] was 5.00 to 6.00; in assay [2] it was 5.00 to 6.00; in assay [3], 6.00 to 7.00.

Regarding `N[C@@](CCCCB(O)O)(C(=O)O)C1CCN(Cc2ccc(Cl)c(Cl)c2)CC1` [Comparative example 3, reference compound], the pIC50 is 5.00 to 6.00 in assay [1], 6.00 to 7.00 in assay [2] and 7.00 to 9.00 in assay [3].

On to `CN(Cc1ccc(Cl)c(Cl)c1)C[C@@H]1CC[C@@H](CCB(O)O)C[C@]1(N)C(=O)O` (racemic) [Example 28, rac-(1R,2S,5R)-1-amino-5-(2-boronoethyl)-2-(((3,4-dichlorobenzyl)(methyl)amino)methyl)cyclohexanecarboxylic acid dihydrochloride], for which the pIC50 in assay [1] was 4.00 to 5.00; in assay [2], 6.00 to 7.00; in assay [3], 6.00 to 7.00.
